Laboratory results from article PMC8287944, “5-Fluorouracil blocks quorum-sensing of biofilm-embedded methicillin-resistant Staphylococcus aureus in mice” (Nucleic Acids Research, 2021).

Experiments:
SE 1457 wild type = assay: AI-2 activity of SE 1457 wild type; format: cell-based, Staphylococcus epidermidis; conditions: 3 h, increasing 5-FU concentrations
Method: (§1) To confirm that the phenotype could be restored, 1 μM synthetic (S)-4,5-dihydroxy-2,3-pentanedione (DPD) (Biosynth Carbosynth, Staad, Switzerland) was used. After 3 h under static conditions at 37°C, the supernatant was analysed for AI-2 activity with V. harveyi (MM32).
Supplementary Figure 4 | Bioactivity of 5-FU against Staphylococcus epidermidis (SE). a) Quorum-sensing-associated AI-2 activity of SE 1457 grown for 3 h in the presence of different 5-FU concentrations (note log scale). b) Reversing effect of 1 µM DPD on the AI-2-reducing action of 5-FU (dashed line indicates AI-2 baseline of SE 1457 without 5-FU). Values represent 3 biological replicates expressed as mean ± SD (*, p < 0.05; **, p < 0.01).

MRSA ATCC 43300 [1] = assay: AI-2 activity of MRSA ATCC 43300; format: cell-based, Staphylococcus aureus; conditions: MRSA ATCC 43300, 3 h, different 5-FU concentrations
Method: as §1
Figure 4. Bioactivity of 5-FU against MRSA ATCC 43300. (A) Quorum sensing-associated AI-2 activity of MRSA 43300 grown for 3 h with different 5-FU concentrations. (B) Effect of different 5-FU concentrations on MRSA 43300 growth. (C) Interference with biofilm formation. (D) Effect on adherent MRSA 43300. Data points represent three biological replicates expressed as mean ± SD (**P < 0.01; ***P < 0.001; ****P < 0.0001).
Figure 5. Phenotype restoration with synthetic AI-2 supplementation. AI-2 activity of MRSA ATCC 43300 was evaluated with and without 1 μM DPD in the presence of different 5-FU concentrations. The dashed line indicates the baseline level of AI-2 of MRSA ATCC 43300 in the absence of 5-FU. Values represent 3 biological replicates expressed as mean ± SD (**P < 0.01; ****P < 0.0001).

MRSA ATCC 43300 [2] = assay: Murine tissue cage (foreign-body) infection model, prophylaxis; format: in vivo, Staphylococcus aureus; conditions: C57BL/6 mice, prophylactic treatment
Method: To evaluate the prophylactic efficacy of 5-FU against MRSA infection, we used our murine model of foreign-body infection, which closely mimics human implant-associated infections. This model of foreign-body infection ([26],[27]) was established with the approval of the Kantonale Veterinaeramt Basel-Stadt, Switzerland (permit no. 1710). Experiments were conducted according to the regulations of Swiss veterinary law and performed in the animal house of the Department of Biomedicine, University Hospital Basel, Switzerland. Healthy wild-type female C57BL/6 mice at 13 weeks of age (JanvierLabs, France) kept under specific pathogen-free conditions (biosafety level 2) were anesthetized, followed by the subcutaneous implantation of sterile cylindrical Teflon tissue cages (8.5 × 1 × 30 mm; volume: 1.9 ml) with 130 regularly spaced holes (Angst + Pfister AG, Zurich, Switzerland). They were housed in a 12 hr light/dark cycle (light from 7 am to 7 pm) in a temperature-controlled room (24°C) with free access to regular mice chow and water. Mice were randomly assigned to experimental groups, which were not involved in previous procedures. The mice were randomized into groups, which were treated as follows: saline (untreated growth control; n = 7), saline with 5.2844 mg/kg DPD (n = 4), 50 mg/kg daptomycin (DAP) (Novartis, Basel, Switzerland) (n = 11), 10 mg/kg 5-FU with and without 50 mg/kg DAP (each n = 8), 40 mg/kg 5-FU with or without 50 mg/kg DAP (n = 16 and n = 13, respectively), 40 mg/kg 5-FU with 1 μM DPD (n = 6), or 40 mg/kg 5-FU with 50 mg/kg DAP and 5.2844 mg/kg DPD (n = 8). DAP was given intraperitoneally immediately before implantation, and 5-FU and DPD was given immediately after implantation directly into the lumen of the cage. Afterwards, the cages were infected with 965 CFU of MRSA 43300. At 2 days post-infection, tissue cage fluid was collected, and the planktonic bacterial load was evaluated by plating on blood agar plates. In additional, mice were sacrificed and the tissue cages were explanted under aseptic conditions. The explanted tissue cages were washed twice with phosphate-buffered saline followed by 30 s vortexing, sonication for 3 min at 130 W and another 30 s vortexing to release adherent bacteria from the biofilm. Quantification of adherent bacteria was performed by plating appropriated dilutions on blood agar plates. To determine the prevention rate, the presence of any re-growth of MRSA was examined by further incubation of the cage in tryptic soy broth (TSB) for 48 h at 37°C. MRSA re-growth represents therapy failure, and the prevention rate was defined as the percentage of cages without growth in each treatment group.
Figure 6. Prophylactic effect of 5-FU against MRSA ATCC 43300 in a murine tissue cage infection model. Read-outs were obtained two days after infection with 965 CFU/cage and treatment with saline, saline with 1 μM AI-2, 50 mg/kg daptomycin (DAP), 10 mg/kg 5-FU with or without 50 mg/kg DAP, 40 mg/kg 5-FU with or without 50 mg/kg DAP or 40 mg/kg 5-FU with 50 mg/kg DAP and 5.2844 mg/kg DPD, as indicated below the panels. (A) Effect on planktonic MRSA 43300 two days post-infection. (B) Effect on adherent MRSA after explantation and sonication. (C) Prevention rate. Values in (A) and (B) are median ± IQR and those in (C) are % ([…]; **P < 0.001; ****P < 0.0001; ns, not significant). TEXT PRINTED IN THE PICTURE: (C) DAP: prevention rate (%): 18 | (C) DAP + 5-FU (10): prevention rate (%): 75 | (C) DAP + 5-FU (40): prevention rate (%): 94 | (C) DAP + 5-FU (40) + DPD: prevention rate (%): 12.5 DOUBTS OF THE COPYIST ABOUT THIS PICTURE: Panel C, DAP, prevention rate: 18 or 16 (small print) / Panel C, DAP + 5-FU (10), prevention rate: 75 or 76 (small print) / Panel C: which treatment belongs to each bar was read from the small +/- grid under the plot, so the column alignment is not fully certain

With `O=c1[nH]cc(F)c(=O)[nH]1` [5-Fluorouracil] the “AI-2 activity of SE 1457” value (SE 1457 wild type) was “reduced AI-2 activity dose-dependently”, the “AI-2 production and quorum-sensing capacity of MRSA” value (MRSA ATCC 43300 [1]) was “dose-dependently reduced” and the “Effect on biofilm / adherent MRSA” value (MRSA ATCC 43300 [2]; explanted cages 2 days post-infection) was “neither 5-FU nor DAP alone was sufficient to contain the infection”. For the same molecule, the “Effect on planktonic MRSA infection” value (MRSA ATCC 43300 [2]; tissue cage fluid 2 days post-infection) was “failed to clear planktonic MRSA infections”.
